Results from a melting point compilation (Tetko et al.; mined from patent text by program, amines drawn as free bases though some values may be those of a salt).

SMILES	melting point [°C]
CCCCc1nc(C(C)=O)c(C#N)[nH]1	77 to 78
CCCCc1sc(C(=O)O)c2c1-c1nn(C)cc1CC2	244 to 245
C#CCOCc1c(C)nc2c(OCc3ccccc3OC)cccn12	107 to 108
COc1ccc(Oc2ccc3c(c2)C=C(C(=O)O)C(C(F)(F)F)O3)cc1Cl (centres undefined)	205 to 207
Clc1ccc(CN2CC=C(/C=C/c3ccccc3)CC2)cc1	141 to 142
COc1ccc(CCCn2ccnc2S)cc1	108 to 109
N#Cc1cccc(NCC(=O)N2CCC(Cc3ccc(F)cc3)CC2)c1	138 to 142
O=C(Nc1cccc2cc(C(=O)O)[nH]c12)c1cc(OCc2ccccc2F)cc(OCc2ccccc2F)c1	271 to 273
CCOC(=O)C(=CNc1nnc(C)s1)C(=O)c1cc(F)c(F)cc1F	147 to 151
Cc1ccc(C23CC(C2)C(=O)N(C)C3=O)cc1	138 to 140
CCCOc1ccccc1C(=O)Nc1cccnc1C(N)=O	116 to 118
CC(O)=C(C#N)C(=O)Nc1cccc(F)c1	136 to 138
CN1CCN(C(=S)C2(c3ccccn3)CCCS2)CC1 (centres undefined)	124
CCn1ncc2nc(C(=O)NC)c(-c3ccccc3)nc21	165 to 166
CC1CC(=O)NN=C1c1ccc(N2CCN(C(=O)NCCCc3c[nH]cn3)CC2)c([N+](=O)[O-])c1 (centres undefined)	182
CN1CCC[C@@H]1Cc1cn(Cc2ccccc2)c2ccc(CS(=O)(=O)N(C)C(c3ccccc3)c3ccccc3)cc12	117 to 120
COC(Cn1cncn1)(OC)c1ccc(Cl)cc1Cl	87.7
Ic1ccc(Cc2cc(I)c(Cc3ccc(I)cc3)cc2I)cc1	210 to 213
O=C1COc2c(cc(Cl)cc2C(=O)NC2CCN(Cc3ccccc3)CC2)N1	203 to 206
COc1ccc(C2=NN(CCc3ccccc3)C(=O)[C@H]3CCCC[C@@H]23)cc1OC (relative stereo)	99 to 100
CCOC(=O)Nc1ccc2c3c(n(CCCN(C)C)c2c1)CCCCCC3	119 to 123
COc1cc(/C=C/c2ccc(C(C)(C)C)cc2)cc(OC)c1OC	127 to 128
COc1cccc2c1CCCC2=NNc1nc(-c2ccc(F)cc2)cs1	198
CCCc1c(OCCCOc2cccc3c2CCCC3)ccc2c1OC(CCCO)(CCCO)CC2O (centres undefined)	123 to 124
CCCCCCc1cc(-c2ccccc2)c(OCC(=O)OC)c(-c2ccccc2)c1	87 to 89
Nc1ccccc1-c1cc2[nH]c3ccccc3c2c2c1C(=O)NC2=O	> 300

SMILES	melting point [°C]
C=CCOc1ccc(C#N)cc1	41.6
COc1cccc(CNC(=O)c2ncc3ccccc3n2)c1	91 to 93
N#CCS(=O)(=O)CC(=O)O	104 to 105
CCOC(=O)COc1ccc([N+](=O)[O-])cc1	75 to 76
COc1ccc(N2CCN(c3c(C)c4c(c(OC(C)C)c3C)OC(C)C4)CC2)cc1 (centres undefined)	110 to 112
NC(=O)NCCCCCCNC(N)=O	197 to 200
Cc1ccc(C)c(Cn2[nH]c(N)cc2=O)c1	124
CN1C(=O)NC(Cc2ccccc2)C1=O (centres undefined)	172
O=C(/C=C/c1ccc(S(=O)(=O)N2CCN(c3ccc([N+](=O)[O-])cc3)CC2)cc1)NO	199 to 200
COc1cc(Cc2cnc(N)nc2N)cc(OC(C)C(C)=O)c1OC (centres undefined)	168
CCOC(=O)c1csc(C2CCC2)n1	48 to 50
Cc1nc(N)nc(N)c1-c1cc(N)ccc1Cl	117 to 121
COc1cc(Cc2ccccc2)c(O)c2c1C(C)(C)CCC2(C)C	80
CC(C)(C)OC(=O)NCc1cc(-c2cccnc2)no1	67 to 69
CC1(C)CCC(C)(C)c2cc(-c3ccc(-c4ccccc4)c(-c4ccc(C(=O)O)cc4)c3)ccc21	233 to 235
CCS(=O)CCNC(=O)C1=C(C(=O)Nc2ccc(Cl)cc2F)CCCC1 (centres undefined)	136 to 137
O=C(O)/C=C/c1ccc(-c2nc3c([nH]2)c(=O)n(CC2CCCCC2)c(=O)n3CC2CCCCC2)s1	> 300
COc1ccc(-c2cncc(OC3SCC(O)C(O)C3O)c2)c(Cl)c1 (centres undefined)	218
CC(C)(C)OC(=O)Nc1ccc(Cl)c(O)c1	103 to 106
O=S(=O)(C(=CN=c1ccc(Br)cn1Cc1ccccc1)S(=O)(=O)c1ccccc1)c1ccccc1	216 to 217
COc1cc2c3c(c1O)-c1ccc(Cl)cc1CC3N(C)CC2 (centres undefined)	155 to 157
CCN(CC)c1ccc(C(=O)C#Cc2ccnc3ccccc23)cc1	163 to 165
COc1ccc(C2=C(/C=C/C(=O)Oc3ccc([N+](=O)[O-])cc3)CCc3cc(OC)ccc32)cc1	151 to 152
Nc1ccc2snc(-c3sccc3Cl)c2c1	128 to 132
O=C(CCCO)c1ccc(CCNS(=O)(=O)c2ccccc2)cc1	89 to 90
CCCCc1nc2cccc(CC#N)c2n1Cc1ccccc1Cl	124 to 125

SMILES	melting point [°C]
Cc1ccc(NC(N)=S)c(-c2ccccc2)c1	175 to 177
O=C(Cl)/C=C/c1cccc(Br)c1	85 to 86
O=C(O)CC(O)c1ccc(-c2ccc(Cl)c(Cl)c2)o1 (centres undefined)	95 to 96
CC(C)c1cccc(N2CCN(c3cccc(C(=O)O)c3)C2=O)c1	189 to 190
C#CCOc1ccc(C2c3[nH]c4ccccc4c3CC(C(=O)OC)N2C(=O)CCl)cc1 (centres undefined)	218
C=C(C)c1nc(CCC)n(Cc2ccc(-c3ccccc3C(=O)C(=O)O)cc2)c1C(=O)O	150 to 151
Cc1ccc2c(O)c(C(=O)O)cnc2c1	264 to 265
COc1cccc(CC(=O)O)c1OCCCc1cn(-c2ncc(C(F)(F)F)cc2Cl)nc1C(C)C	96 to 97
COc1ccccc1C(=O)NN=C(CC(C)C)c1ccncc1	130
Cc1nc(-c2ncn3c2COC(=O)c2c(Cl)cccc2-3)no1	253 to 255
CC(=O)c1cccc(Oc2ncccc2C(=O)NCc2ccc(C(C)(C)O)cc2F)c1	68 to 70
CNC(=O)c1cc2c(nc(C)n2C)c2c1CCC(OC)(c1ccccc1)O2 (centres undefined)	237 to 239
O=C1OC2CCC1OC2 (centres undefined)	56 to 57
COc1ccccc1C(Nc1ccncc1)c1ccccc1 (centres undefined)	143 to 145
O=C1C(Cc2ccccc2)SC(=S)N1c1nc2ccccc2s1 (centres undefined)	187 to 189
CCOC(=O)C1=C(C)NC(COCCN2C(=O)c3ccccc3C2=O)=C(C(=O)OCC)C1c1ccccc1Cl (centres undefined)	142 to 144
CC1(C(=O)O)CC1(Br)Br (centres undefined)	108 to 109
CCOc1ccccc1-c1nc2cc3nc[nH]c3cc2c(=O)[nH]1	194 to 196
COc1ccc(COc2ccc(CSc3ccc(OCC(=O)O)c(C)c3)cc2)cc1	150 to 152
COc1nc(CC(=O)O)c([N+](=O)[O-])cc1C	135 to 137
CCCCc1c(Cl)nc(N)nc1-c1cc2ccccc2o1	195 to 196
COC(=O)[C@@H]1C[C@H](OS(=O)(=O)c2ccc(Br)cc2)C(=O)[C@@H]2[C@@]3(C)C[C@@H](c4ccoc4)OC(=O)[C@H]3CC[C@]21C	165 to 166
CN(C)CCOc1ccc2ccc(NC(=O)c3ccccc3)nc2n1	109
CSCCSc1c(O)cc(C)oc1=O	81 to 83
O=c1oc2c([N+](=O)[O-])c(O)c(O)cc2cc1-c1ccccc1	195 to 210
O=C(NC1CC1)c1ccc(CCN2CC=C(c3c[nH]c(-c4ccc(F)cc4)c3-c3ccncc3)CC2)cc1	226 to 228

SMILES	melting point [°C]
O=[N+]([O-])C=C1SCCN1Cc1ccc(Cl)nc1	177 to 179
O=C(Cl)c1cc([N+](=O)[O-])c(Cl)c([N+](=O)[O-])c1	55 to 57
C=CCn1c(N)cc(=O)n1-c1ccccc1	184 to 185
CN1C(=O)C(C)(Cc2ccccc2)N(C)C(=O)C1=Cc1cccnc1C#N (centres undefined)	163
CN[C@@H]1CN(C(=O)c2nn(C)c3ccccc23)C[C@@H]1C (relative stereo)	89 to 91
O=C(NCc1ccc2ccn(C3CCN(CCc4ccc(F)cc4)CC3)c2c1)C1CC1	116 to 117
CCC1(CC)NC(C)(COC(=O)C(C)(C)C)COC1=O (centres undefined)	51 to 53
Cc1nc(C)c(Cl)c(NCc2ccc(O)cc2)n1	202
COc1ccc2sc(=Nc3ccccc3)sc2c1	58 to 60
COc1cc(C)c(C(O)c2c(C(F)(F)F)cnc(Cl)c2Cl)c(OC)c1OC (centres undefined)	95 to 98
CC(C)(C)OC(=O)NNCc1cccc(C#N)c1	75 to 80
COS(=O)c1cc(C(=O)CBr)ccc1C (centres undefined)	123 to 125
N#Cc1ccc(C(=C2C3CC4CC(C3)CC2C4)c2ncc[nH]2)cc1	155
Cc1ccc(OC(CCCCCc2ccc(Cl)cc2)C(=O)O)cc1 (centres undefined)	74 to 76
Cc1csc(C(=O)O)c1NC(=O)OC(C)(C)C	179 to 180
COc1ccc(C(=O)Nc2ccc(C(C)=O)cc2)cc1C12CC3CC(CC(C3)C1)C2	200 to 201
CN(C)S(=O)(=O)c1cc2c(c(Cl)c1Cl)OC(C(=O)OCC(=O)O)C2 (centres undefined)	149 to 150
COC(=O)c1cc([N+](=O)[O-])ccc1-c1c(OC)cccc1OC	157
CC(=O)N1CCN(c2ccc(NS(C)(=O)=O)cc2)CC1	165 to 167
CN(C)Cc1cc(C(=O)c2cccs2)cc(C(C)(C)C)c1O	132 to 134
COc1cccc(C=C2SC(=S)NC2=O)c1OC	268 to 269
O=C1CCC(c2ccc(N=C=S)cc2)=NN1	182 to 183
NC(=O)c1[nH]cnc1OC(=O)C(=Cc1ccccc1)c1ccccc1	208
CC(C)N(N=O)c1ccc(N(N=O)c2ccccc2)cc1	85 to 89
COC(=O)COc1ccc(C(C)CNS(=O)(=O)c2ccccc2)cc1F (centres undefined)	112 to 113
CS(=O)c1ccc(-c2ccc(-c3ccc(F)cc3)s2)s1 (centres undefined)	153 to 157
